The subject of one data set is Heliothis virescens. As to the kind of experiment: Activity against Heliothis virescens (foliar application). It counts as in vivo. The settings on record: 144 h, 400 ppm active ingredient, sprayed young soya plants, 1st instar caterpillars, 6 days, read-out: percentage reduction in the population and in the feeding damage (% activity). On the procedure:
Activity Against Heliothis virescens (Foliar Application) Young soya plants are sprayed with an aqueous emulsion spray mixture comprising 400 ppm of active ingredient and, after the spray coating has dried on, populated with 10 caterpillars (1st instar) of Heliothis virescens and introduced into a plastic container. 6 days later, the percentage reduction in the population and in the feeding damage (% activity) are determined by comparing the number of dead caterpillars and the feeding damage between the treated and untreated plants.

Another data set has as its system Plutella xylostella. As to the kind of experiment: Activity against Plutella xylostella (sprayed cabbage plants). Particulars: 72 h, 400 ppm active ingredient, sprayed young cabbage plants, 3rd instar caterpillars, 3 days, read-out: percentage reduction in the population and in the feeding damage (% activity). Type of data set: in vivo. On the procedure: Activity Against Plutella xylostella Young cabbage plants are sprayed with an aqueous emulsion spray mixture comprising 400 ppm of active ingredient and, after the spray coating has dried on, populated with 10 caterpillars (3rd instar) of Plutella xylostella and introduced into a plastic container. 3 days later, the percentage reduction in the population and in the feeding damage (% activity) are determined by comparing the number of dead caterpillars and the feeding damage between the treated and untreated plants.

The subject of the next data set is Spodoptera littoralis. Put plainly: Activity against Spodoptera littoralis (sprayed soya plants). Particulars: 72 h, 400 ppm active ingredient, sprayed young soya plants, 1st instar caterpillars, 3 days, read-out: percentage reduction in the population and in the feeding damage (% activity). Type of data set: in vivo. How it is done:
Activity Against Spodoptera littoralis Young soya plants are sprayed with an aqueous emulsion spray mixture comprising 400 ppm of active ingredient and, after the spray coating has dried on, populated with 10 caterpillars (1st instar) of Spodoptera littoralis and introduced into a plastic container. 3 days later, the percentage reduction in the population and in the feeding damage (% activity) are determined by comparing the number of dead caterpillars and the feeding damage between the treated and untreated plants.

A word on the melting point: it is the temperature, or range, at which the solid turns liquid.

`CNC(=O)c1cc2c(c(Br)c1NC(=O)c1cc(C(F)(F)F)nn1-c1ncccc1Cl)OC(C)(C)O2` registered a melting point of 274 to 276 °C. Take `CNC(=O)c1cc2c(c(C)c1NC(=O)c1cc(C(F)(F)F)nn1-c1ncccc1Cl)OC(C)(C)O2`: the melting point fell in the range of 242 to 244 °C.

In turn, `Cc1c(NC(=O)c2cc(C(F)(F)F)nn2-c2ncccc2Cl)c(C(=O)NC(C)C)cc2c1OC(C)(C)O2` returned a melting point of 256 to 258 °C. In the case of `CNC(=O)c1cc2c(c(Cl)c1NC(=O)c1cc(C(F)(F)F)nn1-c1ncccc1Cl)OC(F)(F)O2`, the melting point lay in the range of 265 to 267 °C.

On to `CNC(=O)c1cc2cc(Br)ccc2c(Cl)c1NC(=O)c1cc(C(F)(F)F)nn1-c1ncccc1Cl` [Compound T2.1], for which the inhibition at 400 ppm in the data set with Heliothis virescens, with Plutella xylostella and in the data set on Spodoptera littoralis was above 80% throughout. As for `CCNC(=O)c1cc2cc(Br)ccc2c(Cl)c1NC(=O)c1cc(C(F)(F)F)nn1-c1ncccc1Cl` [Compound T2.2], the inhibition at 400 ppm with Heliothis virescens, in the data set with Plutella xylostella and in the data set on Spodoptera littoralis was above 80% in each case. As to `CNC(=O)c1cc2cc(C#N)ccc2c(Cl)c1NC(=O)c1cc(C(F)(F)F)nn1-c1ncccc1Cl` [Compound T5.1], the inhibition at 400 ppm in the data set on Heliothis virescens, in the data set on Plutella xylostella and in the data set with Spodoptera littoralis was above 80% throughout. With `CC(C)NC(=O)c1cc2cc(C#N)ccc2c(Cl)c1NC(=O)c1cc(C(F)(F)F)nn1-c1ncccc1Cl` [Compound T5.3], the inhibition at 400 ppm in the data set on Heliothis virescens, in the data set on Plutella xylostella and in the data set with Spodoptera littoralis was above 80% throughout. Regarding `CNC(=O)c1cc2ccccc2c(C)c1NC(=O)c1cc(C(F)(F)F)nn1-c1ncccc1Cl` [Compound T8.1], the inhibition at 400 ppm in the data set with Heliothis virescens, in the data set with Plutella xylostella and in the data set with Spodoptera littoralis was above 80% in each case.

In the case of `CNC(=O)c1cc2cc(Br)ccc2c(Br)c1NC(=O)c1cc(C(F)(F)F)nn1-c1ncccc1Cl` [Compound T9.1], the inhibition at 400 ppm in the data set with Heliothis virescens, in the data set on Plutella xylostella and in the data set with Spodoptera littoralis was above 80% each time. Turning to `CCNC(=O)c1cc2cc(Br)ccc2c(Br)c1NC(=O)c1cc(C(F)(F)F)nn1-c1ncccc1Cl` [Compound T9.2], the inhibition at 400 ppm in the data set with Heliothis virescens, with Plutella xylostella and with Spodoptera littoralis was above 80% in each case. Turning to `CC(C)NC(=O)c1cc2cc(Br)ccc2c(Br)c1NC(=O)c1cc(C(F)(F)F)nn1-c1ncccc1Cl` [Compound T9.3], the inhibition at 400 ppm in the data set on Heliothis virescens, in the data set with Plutella xylostella and in the data set with Spodoptera littoralis was above 80% in each case. With `CNC(=O)c1cc2cc(Cl)ccc2c(Cl)c1NC(=O)c1cc(C(F)(F)F)nn1-c1ncccc1Cl` [Compound T20.1], the inhibition at 400 ppm in the data set on Heliothis virescens, with Plutella xylostella and in the data set on Spodoptera littoralis was above 80% throughout. As to `CC(C)NC(=O)c1cc2cc(Cl)ccc2c(Cl)c1NC(=O)c1cc(C(F)(F)F)nn1-c1ncccc1Cl` [Compound T20.3], the inhibition at 400 ppm with Heliothis virescens, with Plutella xylostella and in the data set with Spodoptera littoralis was above 80% in each case.

For `CC(C)NC(=O)c1cc(Cl)c2ccccc2c1NC(=O)c1cc(C(F)(F)F)nn1-c1ncccc1Cl` [Compound T22.3], in the data set with Plutella xylostella, the inhibition at 400 ppm is above 80%. On to `CNC(=O)c1c(NC(=O)c2cc(C(F)(F)F)nn2-c2ncccc2Cl)sc2c1CCCC2` [Compound T46.1], for which the melting point lay in the range of 261 to 263 °C. In turn, `CC(C)NC(=O)c1c(NC(=O)c2cc(C(F)(F)F)nn2-c2ncccc2Cl)sc2c1CCCC2` [Compound T46.3] registered a melting point of 246 to 248 °C. `CNC(=O)c1cc2c(nc1NC(=O)c1cc(C(F)(F)F)nn1-c1ncccc1Cl)CCCC2` [Compound T50.1]: the melting point was in the range of 145 to 147 °C. As to `CC(C)NC(=O)c1cc2c(nc1NC(=O)c1cc(C(F)(F)F)nn1-c1ncccc1Cl)CCCC2` [Compound T50.3], the melting point was 143 to 145 °C. Compound `CNC(=O)c1c(NC(=O)c2cc(C(F)(F)F)nn2-c2ncccc2Cl)nc2c(c1-c1ccccc1)CCCC2` [Compound T51.1] came in with a melting point of 165 to 168 °C. As to `CC(C)NC(=O)c1c(NC(=O)c2cc(C(F)(F)F)nn2-c2ncccc2Cl)nc2c(c1-c1ccccc1)CCCC2` [Compound T51.3], the melting point lay in the range of 146 to 148 °C. On the same count and under the same terms, as for `CNC(=O)c1c(NC(=O)c2cc(C(F)(F)F)nn2-c2ncccc2Cl)nc2c(c1-c1ccccc1)CCCCC2` [Compound T52.1], the figure is 211 to 213 °C. Compound `CC(C)NC(=O)c1c(NC(=O)c2cc(C(F)(F)F)nn2-c2ncccc2Cl)nc2c(c1-c1ccccc1)CCCCC2` [Compound T52.3] yielded a melting point of 269 to 270 °C. Compound `CNC(=O)c1c(NC(=O)c2cc(C(F)(F)F)nn2-c2ncccc2Cl)nc2c(c1-c1cccc(Cl)c1)CCCC2` [Compound T53.1] yielded a melting point of 183 to 185 °C. Same read-out and setting: as for `CC(C)NC(=O)c1c(NC(=O)c2cc(C(F)(F)F)nn2-c2ncccc2Cl)nc2c(c1-c1cccc(Cl)c1)CCCC2` [Compound T53.3], the figure is 259 to 260 °C; as for `CNC(=O)[C@H]1Cc2ccccc2C[C@H]1NC(=O)c1cc(C(F)(F)F)nn1-c1ncccc1Cl` [Compound T72.1], 226 to 228 °C. As for `CC(C)NC(=O)[C@H]1Cc2ccccc2C[C@H]1NC(=O)c1cc(C(F)(F)F)nn1-c1ncccc1Cl` [Compound T72.3], the melting point fell in the range of 229 to 232 °C.

In turn, `O=C(N[C@@H]1Cc2ccccc2C[C@@H]1C(=O)NC1CC1)c1cc(C(F)(F)F)nn1-c1ncccc1Cl` [Compound T72.207] displayed a melting point of 230 to 233 °C. `CSCC(C)(C)NC(=O)[C@H]1Cc2ccccc2C[C@H]1NC(=O)c1cc(C(F)(F)F)nn1-c1ncccc1Cl` [Compound T72.273] returned a melting point of 184 to 186 °C. Same read-out and setting: as for `CNC(=O)[C@H]1Cc2ccccc2C(C)[C@H]1NC(=O)c1cc(C(F)(F)F)nn1-c1ncccc1Cl` (stereo partly shown) [Compound T73.1], the figure is 205 to 207 °C; as for `CC(C)NC(=O)[C@H]1Cc2ccccc2C(C)[C@H]1NC(=O)c1cc(C(F)(F)F)nn1-c1ncccc1Cl` (stereo partly shown) [Compound T73.3], 223 to 225 °C; as for `CC1c2ccccc2C[C@H](C(=O)NC2CC2)[C@@H]1NC(=O)c1cc(C(F)(F)F)nn1-c1ncccc1Cl` (stereo partly shown) [Compound T73.207], 192 to 194 °C. For `CNC(=O)c1c(NC(=O)c2cc(C(F)(F)F)nn2-c2ncccc2Cl)sc2c1CCC(OC)C2` (stereo not shown) [Compound T74.1], the melting point is 133 to 135 °C.

`COC1CCc2c(sc(NC(=O)c3cc(C(F)(F)F)nn3-c3ncccc3Cl)c2C(=O)NC(C)C)C1` (stereo not shown) [Compound T74.3] showed a melting point of 206 to 207 °C. In the case of `CNC(=O)c1nc2ccccc2c(C)c1NC(=O)c1cc(C(F)(F)F)nn1-c1ncccc1Cl` [Compound T75.1], the inhibition at 400 ppm in the data set with Heliothis virescens, in the data set on Plutella xylostella and in the data set on Spodoptera littoralis was above 80% in each case. For `Cc1c(NC(=O)c2cc(C(F)(F)F)nn2-c2ncccc2Cl)c(C(=O)NC(C)C)nc2ccccc12` [Compound T75.3], the inhibition at 400 ppm in the data set with Heliothis virescens, in the data set on Plutella xylostella and in the data set on Spodoptera littoralis was above 80% throughout. On to `CNC(=O)c1cc2c([N+](=O)[O-])cccc2c(Cl)c1NC(=O)c1cc(C(F)(F)F)nn1-c1ncccc1Cl` [Compound T76.1], for which the inhibition at 400 ppm in the data set with Heliothis virescens, in the data set on Plutella xylostella and in the data set on Spodoptera littoralis was above 80% in each case. On to `CC(C)NC(=O)c1cc2c([N+](=O)[O-])cccc2c(Cl)c1NC(=O)c1cc(C(F)(F)F)nn1-c1ncccc1Cl` [Compound T76.3], for which the inhibition at 400 ppm in the data set on Heliothis virescens, in the data set on Plutella xylostella and in the data set on Spodoptera littoralis was above 80% throughout. `CNC(=O)c1cc2ccccc2c([N+](=O)[O-])c1NC(=O)c1cc(C(F)(F)F)nn1-c1ncccc1Cl` [Compound T78.1]: in the data set with Plutella xylostella, the inhibition at 400 ppm is above 80%.

`CNC(=O)c1sc2cccc(Cl)c2c1NC(=O)c1cc(C(F)(F)F)nn1-c1ncccc1Cl` [Compound T79.1]: the inhibition at 400 ppm with Heliothis virescens and in the data set with Plutella xylostella was above 80% in each case. Turning to `CNC(=O)c1c(NC(=O)c2cc(C(F)(F)F)nn2-c2ncccc2Cl)c(C)nc2ccccc12` [Compound T81.1], the inhibition at 400 ppm with Heliothis virescens and in the data set on Plutella xylostella was above 80% throughout. In turn, `CNC(=O)c1sc2nsc(C)c2c1NC(=O)c1cc(C(F)(F)F)nn1-c1ncccc1Cl` [Compound T88.1] showed a melting point of 264 to 266 °C. Turning to `Cc1snc2sc(C(=O)NC(C)C)c(NC(=O)c3cc(C(F)(F)F)nn3-c3ncccc3Cl)c12` [Compound T88.3], the melting point lay within 261 to 263 °C.

The record behind these values is US7812170B2, “Insecticides” (Syngenta Crop Protection, Inc., priority 2004, dated 2010).
